Format in all cases: biochemical
The target in one assay is GSK3α(h) (Homo sapiens, UniProt P49840). Kind of assay: GSK3α radiometric kinase assay (33P-ATP, phospho GS2 peptide). The following applies: read-out: IC50 GSK3α (enzyme assay). The procedure, abridged: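 Human GSK3α incubated with 20 μM phospho-GS2 peptide in 8 mM MOPS pH 7,0, 10 mM Mg-acetate and [γ-33P]ATP (concentration as required), started with MgATP. After 40 minutes at room temperature, stopped with phosphoric acid; 33P incorporation measured by filtermat spotting and scintillation counting.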
GSK3α(h), sequence (P49840 whole entry): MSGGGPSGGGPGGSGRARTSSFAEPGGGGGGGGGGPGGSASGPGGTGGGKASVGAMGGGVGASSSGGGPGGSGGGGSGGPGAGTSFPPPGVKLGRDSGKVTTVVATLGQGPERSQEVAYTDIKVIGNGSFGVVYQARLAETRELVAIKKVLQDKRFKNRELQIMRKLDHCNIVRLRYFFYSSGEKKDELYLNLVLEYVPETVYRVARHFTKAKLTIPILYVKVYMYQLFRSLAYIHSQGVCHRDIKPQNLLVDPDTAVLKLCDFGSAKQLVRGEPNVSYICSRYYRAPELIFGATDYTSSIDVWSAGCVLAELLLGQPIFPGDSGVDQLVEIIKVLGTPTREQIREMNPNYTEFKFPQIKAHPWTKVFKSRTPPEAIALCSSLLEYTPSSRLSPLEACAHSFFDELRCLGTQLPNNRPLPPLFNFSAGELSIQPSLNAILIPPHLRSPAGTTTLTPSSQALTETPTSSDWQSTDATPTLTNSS

In a further assay the target is GSK3β(h) (Homo sapiens, UniProt P49841). Kind of assay: GSK3β radiometric kinase assay (33P-ATP, phospho GS2 peptide). The following applies: read-out: IC50 GSK3β (enzyme assay). Here is the method:
GSK3β(h) is incubated with 8 mM MOPS pH 7,0, 0,2 mM EDTA, 20 μM
[…](p)EDEEE (phosphor GS2 peptide), 10 mM Mg-acetate and [gamma-33P-ATP](specific activity approx. 500 cpm/Pmol, concentration as required). The reaction is initiated by the addition of the MgATP. After incubation for 40 minutes at the room temperature, the Reaction is stopped by the addition of 3% phosphoric acid solution. 10 μL of reaction is then spotted onto a P30 filtermat and washed three times for 5 minutes in 50 mM phosphoric acid and once in methanol prior to drying and scintillation counting.

For another assay, the target named is GCN2 (Homo sapiens, UniProt Q9P2K8). Briefly: GCN2 enzyme assay (TR-FRET Lanthascreen, GFP-eIF2alpha phosphorylation). The following applies: 10 μM ATP, 80 nM GFP-eIF2a, 30 nM GCN2. The procedure, abridged: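 Phosphorylation of GFP-eIF2alpha (80 nM) by GCN2 run at room temperature with 10 μM ATP. After EDTA quench, product quantified by Lanthascreen TR-FRET (antibody–GFP complex, 340 nm excitation).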
GCN2, sequence (Q9P2K8 whole entry, species assumed): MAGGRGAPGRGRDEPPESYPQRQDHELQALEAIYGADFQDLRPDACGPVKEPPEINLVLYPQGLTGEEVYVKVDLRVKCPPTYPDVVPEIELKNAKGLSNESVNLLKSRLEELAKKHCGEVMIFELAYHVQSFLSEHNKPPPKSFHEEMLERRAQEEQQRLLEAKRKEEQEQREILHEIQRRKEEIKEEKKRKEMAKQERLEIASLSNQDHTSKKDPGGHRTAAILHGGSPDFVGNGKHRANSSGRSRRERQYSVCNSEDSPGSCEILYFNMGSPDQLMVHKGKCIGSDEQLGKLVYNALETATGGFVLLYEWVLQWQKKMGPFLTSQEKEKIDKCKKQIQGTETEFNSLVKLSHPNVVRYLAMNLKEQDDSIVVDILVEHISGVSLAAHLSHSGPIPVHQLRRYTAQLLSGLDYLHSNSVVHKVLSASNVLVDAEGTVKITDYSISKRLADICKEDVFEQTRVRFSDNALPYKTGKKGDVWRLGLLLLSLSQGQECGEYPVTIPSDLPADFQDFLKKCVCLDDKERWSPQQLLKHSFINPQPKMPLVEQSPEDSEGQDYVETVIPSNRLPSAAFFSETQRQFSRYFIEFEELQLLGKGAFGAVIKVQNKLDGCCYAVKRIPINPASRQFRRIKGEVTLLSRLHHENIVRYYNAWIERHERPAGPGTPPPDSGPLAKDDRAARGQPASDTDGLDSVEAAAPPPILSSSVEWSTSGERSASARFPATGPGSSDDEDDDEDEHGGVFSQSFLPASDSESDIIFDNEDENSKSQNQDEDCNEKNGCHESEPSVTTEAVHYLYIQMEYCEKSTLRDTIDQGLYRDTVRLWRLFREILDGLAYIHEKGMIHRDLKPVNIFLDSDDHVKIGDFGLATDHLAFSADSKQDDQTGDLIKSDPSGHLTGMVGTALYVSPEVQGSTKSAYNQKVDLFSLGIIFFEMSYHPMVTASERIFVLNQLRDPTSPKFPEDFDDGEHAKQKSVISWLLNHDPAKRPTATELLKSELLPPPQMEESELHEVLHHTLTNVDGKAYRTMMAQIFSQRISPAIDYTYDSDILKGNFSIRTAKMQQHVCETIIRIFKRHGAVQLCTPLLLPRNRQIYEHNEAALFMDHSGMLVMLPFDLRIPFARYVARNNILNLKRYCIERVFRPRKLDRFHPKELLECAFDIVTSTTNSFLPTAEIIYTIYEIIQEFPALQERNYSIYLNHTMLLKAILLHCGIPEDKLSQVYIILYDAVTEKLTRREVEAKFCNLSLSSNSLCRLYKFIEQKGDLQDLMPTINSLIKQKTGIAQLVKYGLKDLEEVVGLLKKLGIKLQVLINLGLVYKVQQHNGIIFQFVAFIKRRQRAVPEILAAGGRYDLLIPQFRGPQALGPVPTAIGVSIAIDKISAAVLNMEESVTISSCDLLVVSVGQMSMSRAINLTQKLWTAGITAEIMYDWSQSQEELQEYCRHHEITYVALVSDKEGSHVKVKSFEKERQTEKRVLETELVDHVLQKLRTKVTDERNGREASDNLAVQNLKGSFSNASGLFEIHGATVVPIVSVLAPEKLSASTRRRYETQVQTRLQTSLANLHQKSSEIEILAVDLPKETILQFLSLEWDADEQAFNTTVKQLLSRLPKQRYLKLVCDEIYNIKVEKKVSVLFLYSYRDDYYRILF

Some results are limits rather than exact numbers.

GSK3β(h), sequence (P49841 whole entry): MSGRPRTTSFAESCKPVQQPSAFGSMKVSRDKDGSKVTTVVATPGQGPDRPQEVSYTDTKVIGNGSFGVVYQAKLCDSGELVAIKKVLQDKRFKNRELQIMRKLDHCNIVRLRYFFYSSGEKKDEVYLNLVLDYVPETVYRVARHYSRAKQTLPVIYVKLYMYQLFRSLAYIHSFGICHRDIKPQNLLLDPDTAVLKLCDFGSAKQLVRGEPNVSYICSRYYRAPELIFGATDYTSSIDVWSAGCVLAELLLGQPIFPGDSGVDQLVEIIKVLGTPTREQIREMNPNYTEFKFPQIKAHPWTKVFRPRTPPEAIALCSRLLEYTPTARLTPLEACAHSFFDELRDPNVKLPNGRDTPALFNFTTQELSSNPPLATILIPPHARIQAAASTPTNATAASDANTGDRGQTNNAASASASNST

On to `N[C@H]1CC[C@@H](Nc2ncc3nnn(-c4ccc5ncccc5c4)c3n2)C1` [A119, (1S,3R)-N3-(3-quinolin-6-yl-3H-[1,2,3]triazolo[4,5-d]pyrimidin-5-yl)-cyclopentane-1,3-diamine], for which the values for the IC50 on GSK3α(h), on GSK3β(h) and on GCN2 were under 1000 nM, 1000 to 5000 nM and under 1000 nM, respectively.

Regarding `COc1ccc(-n2nnc3cnc(N[C@H]4CC[C@H](S(N)(=O)=O)C4)nc32)cc1` (relative stereo) [A288, (trans)-3-[3-(4-methoxy-phenyl)-3H-[1,2,3]triazolo[4,5-d]pyrimidin-5-ylamino]-cyclopentanesulfonic acid amide], the IC50 at GSK3α(h), on GSK3β(h) and against GCN2 was under 1000 nM in each case.

`N#CCCn1cc(-c2ccc(-n3nnc4cnc(N[C@@H]5CC[C@@H](C(N)=O)C5)nc43)cc2)cn1` [A217, (1R,3R)-3-(3-{4-[1-(2-cyano-ethyl)-1H-pyrazol-4-yl]-phenyl}-3H-[1,2,3]triazolo[4,5-d]pyrimidin-5-ylamino)-cyclopentanecarboxylic acid amide]: the concentration for half-maximal inhibition (IC50) at GSK3α(h), on GSK3β(h) and at GCN2 was under 1000 nM each time.

In the case of `Cc1ncc2cc(-n3nnc4cnc(N[C@@H]5CC[C@@H](O)C5)nc43)ccc2n1` (relative stereo) [A209, (trans)-3-[3-(2-methyl-quinazolin-6-yl)-3H-[1,2,3]triazolo[4,5-d]pyrimidin-5-ylamino]-cyclopentanol], the IC50 on GSK3α(h), on GSK3β(h) and on GCN2 was under 1000 nM each time.

Take `CCOc1ccc(-n2nnc3cnc(N[C@@H]4CC[C@@H](C(N)=O)C4)nc32)nc1` [A178, (1R,3R)-3-[3-(5-ethoxy-pyridin-2-yl)-3H-[1,2,3]triazolo[4,5-d]pyrimidin-5-ylamino]-cyclopentanecarboxylic acid amide]: the IC50 on GSK3α(h), at GSK3β(h) and against GCN2 was under 1000 nM each time.

In the case of `COc1ccc(-n2nnc3cnc(N[C@@H]4CCN(c5cnn(C)c5)C4)nc32)cc1` [A115, [3-(4-methoxy-phenyl)-3H-[1,2,3]triazolo[4,5-d]pyrimidin-5-yl]-[(R)-1-(1-methyl-1H-pyrazol-4-yl)-pyrrolidin-3-yl]-amine], the half-inhibitory concentration (IC50) on GSK3α(h), on GSK3β(h) and on GCN2 was under 1000 nM throughout.

Turning to `COc1ccc(-n2nnc3cnc(N[C@H]4C[C@H](C(N)=O)C4)nc32)cc1` [A145, (trans)-3-[3-(4-methoxy-phenyl)-3H-[1,2,3]triazolo[4,5-d]pyrimidin-5-ylamino]-cyclobutanecarboxylic acid amide], the IC50 on GSK3α(h), at GSK3β(h) and at GCN2 was under 1000 nM throughout.

Regarding `NC(=O)[C@@H]1CC[C@@H](Nc2ncc3nnn(-c4ccc(N5CCCC5)cc4)c3n2)C1` [A146, (1R,3R)-3-[3-(4-pyrrolidin-1-yl-phenyl)-3H-[1,2,3]triazolo[4,5-d]pyrimidin-5-ylamino]-cyclopentanecarboxylic acid amide], the half-inhibitory concentration (IC50) on GSK3α(h), on GSK3β(h) and against GCN2 was under 1000 nM in each case.

Turning to `COc1ccc(-n2nnc3cnc(N[C@H]4CC[C@H](C(N)=O)C4)nc32)cc1` [A137, (1S,3S)-3-[3-(4-methoxy-phenyl)-3H-[1,2,3]triazolo[4,5-d]pyrimidin-5-ylamino]-cyclopentanecarboxylic acid amide], the half-inhibitory concentration (IC50) on GSK3α(h), at GSK3β(h) and at GCN2 was under 1000 nM in each case.

For the molecule `NC(=O)[C@@H]1CC[C@@H](Nc2ncc3nnn(-c4ccc(I)cn4)c3n2)C1` [A177, (1R,3R)-3-[3-(5-iodo-pyridin-2-yl)-3H-[1,2,3]triazolo[4,5-d]pyrimidin-5-ylamino]-cyclopentanecarboxylic acid amide], the IC50 on GSK3α(h), at GSK3β(h) and against GCN2 was under 1000 nM throughout.

On to `CCOc1ccc(-n2nnc3cnc(N[C@@H]4CC[C@@H](C(N)=O)C4)nc32)cn1` [A179, (1R,3R)-3-[3-(6-ethoxy-pyridin-3-yl)-3H-[1,2,3]triazolo[4,5-d]pyrimidin-5-ylamino]-cyclopentanecarboxylic acid amide], for which the IC50 on GSK3α(h), at GSK3β(h) and against GCN2 was under 1000 nM each time.

As to `COc1ccc(-n2nnc3cnc(N[C@@H]4CCC[C@@H](C(N)=O)C4)nc32)cc1` (relative stereo) [A148, (trans)-3-[3-(4-methoxy-phenyl)-3H-[1,2,3]triazolo[4,5-d]pyrimidin-5-ylamino]-cyclohexanecarboxylic acid amide], the concentration for half-maximal inhibition (IC50) on GSK3α(h) was under 1000 nM; at GSK3β(h), 1000 to 5000 nM; against GCN2, under 1000 nM.

For `CCOc1ccc(-n2nnc3cnc(N[C@@H]4CC[C@@H](c5nnc(N)o5)C4)nc32)cc1` [A283, [(1R,3R)-3-(5-amino-[1,3,4]oxadiazol-2-yl)-cyclopentyl]-[3-(4-ethoxy-phenyl)-3H-[1,2,3]triazolo[4,5-d]pyrimidin-5-yl]-amine], the half-maximal inhibitory concentration (IC50) is under 1000 nM on GSK3α(h), 1000 to 5000 nM at GSK3β(h) and under 1000 nM against GCN2.

In the case of `Cc1ccc2cc(-n3nnc4cnc(N[C@@H]5CCN(C(=O)CCN6CCN(C)CC6)C5)nc43)ccc2n1` [A134, 3-(4-methyl-piperazin-1-yl)-1-{(R)-3-[3-(2-methyl-quinolin-6-yl)-3H-[1,2,3]triazolo[4,5-d]pyrimidin-5-ylamino]-pyrrolidin-1-yl}-propan-1-one], the 50% inhibitory concentration (IC50) was under 1000 nM at GSK3α(h), 1000 to 5000 nM at GSK3β(h) and under 1000 nM at GCN2.

As to `NC(=O)[C@@H]1CC[C@@H](Nc2ncc3nnn(-c4ccc5c(c4)OCCO5)c3n2)C1` [A156, (1R,3R)-3-[3-(2,3-dihydro-benzo[1,4]dioxin-6-yl)-3H-[1,2,3]triazolo[4,5-d]pyrimidin-5-ylamino]-cyclopentanecarboxylic acid amide], the IC50 on GSK3α(h), on GSK3β(h) and on GCN2 was under 1000 nM each time.

Regarding `CCOCCn1cc(-c2ccc(-n3nnc4cnc(N[C@@H]5CC[C@@H](C(N)=O)C5)nc43)cn2)cn1` [A229, (1R,3R)-3-(3-{6-[1-(2-ethoxy-ethyl)-1H-pyrazol-4-yl]-pyridin-3-yl}-3H-[1,2,3]triazolo[4,5-d]pyrimidin-5-ylamino)-cyclopentanecarboxylic acid amide], the half-inhibitory concentration (IC50) on GSK3α(h), at GSK3β(h) and against GCN2 was under 1000 nM each time.

As for `COc1ccc2cc(-n3nnc4cnc(N[C@@H]5CC[C@@H](C(N)=O)C5)nc43)ccc2n1` [A181, (1R,3R)-3-[3-(2-methoxy-quinolin-6-yl)-3H-[1,2,3]triazolo[4,5-d]pyrimidin-5-ylamino]-cyclopentanecarboxylic acid amide], the half-maximal inhibitory concentration (IC50) at GSK3α(h), at GSK3β(h) and at GCN2 was under 1000 nM in each case.

As for `NC(=O)[C@@H]1CC[C@@H](Nc2ncc3nnn(-c4ccc(OCCn5cccn5)cc4)c3n2)C1` [A160, (1R,3R)-3-{3-[4-(2-pyrazol-1-yl-ethoxy)-phenyl]-3H-[1,2,3]triazolo[4,5-d]-pyrimidin-5-ylamino}-cyclopentanecarboxylic acid amide], the IC50 at GSK3α(h), on GSK3β(h) and against GCN2 was under 1000 nM each time.

Consider `COCCn1cc(-c2ccc(-n3nnc4cnc(N[C@@H]5CC[C@@H](C(N)=O)C5)nc43)nc2)cn1` [A219, (1R,3R)-3-(3-{5-[1-(2-methoxy-ethyl)-1H-pyrazol-4-yl]-pyridin-2-yl}-3H-[1,2,3]triazolo[4,5-d]pyrimidin-5-ylamino)-cyclopentanecarboxylic acid amide], for which the IC50 was under 1000 nM on GSK3α(h), under 1000 nM on GSK3β(h) and 1000 to 5000 nM against GCN2.

In the case of `NC(=O)[C@@H]1CC[C@@H](Nc2ncc3nnn(-c4ccc(OCC5CCNCC5)cc4)c3n2)C1` [A279, (1R,3R)-3-{3-[4-(piperidin-4-ylmethoxy)-phenyl]-3H-[1,2,3]triazolo[4,5-d]pyrimidin-5-ylamino}-cyclopentanecarboxylic acid amide], the concentration for half-maximal inhibition (IC50) at GSK3α(h), on GSK3β(h) and at GCN2 was under 1000 nM throughout.

Take `NC(=O)[C@@H]1CC[C@@H](Nc2ncc3nnn(-c4ccc(-c5cnn(CCn6ncccc6=O)c5)cc4)c3n2)C1` [A237, (1R,3R)-3-[3-(4-{1-[2-(6-oxo-6H-pyridazin-1-yl)-ethyl]-1H-pyrazol-4-yl}-phenyl)-3H-[1,2,3]triazolo[4,5-d]pyrimidin-5-ylamino]-cyclopentanecarboxylic acid amide]: the IC50 at GSK3α(h), at GSK3β(h) and on GCN2 was under 1000 nM throughout.

`CS(=O)(=O)N1CC[C@@H](Nc2ncc3nnn(-c4ccc5ncccc5c4)c3n2)C1` [A269, ((R)-1-methanesulfonyl-pyrrolidin-3-yl)-(3-quinolin-6-yl-3H-[1,2,3]triazolo[4,5-d]pyrimidin-5-yl)-amine]: the half-maximal inhibitory concentration (IC50) on GSK3α(h), at GSK3β(h) and against GCN2 was under 1000 nM in each case.

The IC50 is the point on the concentration scale where inhibition reaches its midpoint.

The record behind these values is patent US9855268B2, “Triazolo[4,5-d]pyrimidine derivatives” (Merck Patent GmbH, priority 2013, dated 2018).
